Legend:
Type in all cases: cell-based
rat adipocytes = assay: Glucose uptake in isolated rat adipocytes; conditions: insulin 100 nmol/l, 190-243 fragment 30 μg/ml, FIG. 9b
Experimental: Adipose cells were prepared as previously described (Rodbell (1964) J Biol Chem. 239: 375-80). In brief, epidydymal fat pads were minced and digested in Krebs-Ringer-bicarbonate-HEPES (KRBH) buffer, pH 7.4, containing 10 mM sodium bicarbonate, 30 mM HEPES, 200 nM adenosine, 1% bovine serum albumin (BSA) with 1 mg/ml collagenase. After digestion, the cells were filtered through nylon mesh (250 μm) and washed with KRBH-buffer.
Isolated rat adipocytes were treated for 60 min with insulin (100 nmol/l), 190-243 polypeptide fragment (having the amino acid sequence consisting of SEQ ID NO:1) (30 μg/ml) or 1-243 human apoA-I protein (150 μg/ml) followed by glucose uptake measurement by addition of UC14 tracer glucose (Perkin Elmer) (30 min). The uptake was terminated by centrifugation through dinonyl phtalate oil. Incubation with Cytochalasin B was used to subtract unspecific background binding. Amount of glucose was detected as count radioactivity measured by Beta CounterThe amount of glucose transported was measured using an isotope labeled UC14-assay.

GLUT4 = GLUT4 translocation to plasma membrane in primary FDB muscle fibers (HA immunofluorescence, ex vivo); conditions: FDB fibers of HA-GLUT4-GFP mouse, 60 minutes, insulin 100 nmol/l, FIGS. 1d/7d, 4c/9a
Experimental: To support the glucose uptake observations described in Example 2, the ability of rHDL and the 190-243 polypeptide fragment (SEQ ID NO:1) to increase the amount of GLUT4 in the plasma membrane was assessed by immunofluorescence microscopy of intact primary skeletal flexor digitorum brevis (FDB) muscle fibers, isolated from a transgenic mouse model with muscle-specific HA-GLUT4-GFP expression (Lizunov et al. (2012) Am J Physiol Endocrinol Metab 302: E950-960). The HA epitope present on the first exofacial loop of the HA-GLUT4-GFP construct allows detection of GLUT4 inserted into the plasma membrane. Intact FDB fibers were incubated ex vivo with rHDL followed by fixation and HA antibody labeling of non-permeabilized cells as described below.
Two to five transgenic mice (C57/Bl6; 10-14 weeks) with muscle specific HA-GLUT4-GFP expression (gift from S. Cushman) (Lizunov et al. (2012) Am J Physiol Endocrinol Metab 302: E950-960), were used for each condition. The animals were euthanized and flexor digitorum brevis (FDB) muscles dissected out and incubated with oxygenated Krebs-Henseleit carbonate Hepes (KRBH) buffer (6 mmol/l KCl, 1 mmol/l Na2HPO4, 0.2 mmol/l NaHPO4, 1.4 mmol/l MgSO4, 1 mmol/l CaCl2, 128 mmol/l NaCl, 10 mmol/l HEPES pH 7.4) with 0.5% (w/v) bovine serum albumin. […]

Akt = assay: Western blot for phosphorylated Akt in L6 myotube lysates; conditions: L6 myotubes, 60 minutes
Experimental: Prior to stimulation or treatment cultured myoblast cells were serum starved for 4 hours in serum-free α-MEM and all subsequent treatments, including insulin or phenformin as positive controls (Sigma), were performed in serum free a-MEM. After treatments, cells were washed with ice cold PBS buffer and lysed on ice using a non-denaturing lysis buffer (1% Triton X-100, 50 mmol/l Tris, 150 mmol/l NaCl, pH 8.0) containing protease and phosphatase inhibitors (Roche). Lysates were centrifuged at 16,000×g, 20 minutes at 4° C. and BCA protein assay (Pierce) was performed on supernatants. Equal protein amounts were separated by SDS-PAGE and transferred to nitrocellulose membranes. pAMPK, AMPK, pACC, pAkt, Akt and tubulin were used for immunodetection with IRDye 800CW and 680RD secondary antibodies (LI-COR). Blots were imaged using the Odyssey Fc system and quantified using Image studio v2.0 software.
To dissect the effect of discoidal rHDL on a non-insulin dependent signaling pathway, we conducted western blotting using lysates from L6 myotubes incubated with rHDL. […] Phenformin was used as a positive control, inducing a 1.98±0.33-fold (p=≦0.05) and 2.7±0.74-fold (p=≦0.05) elevation of phosphorylated AMPK and ACC, respectively, at a concentration of 0.4 mmol/l. […] For clarity 1 nmol/l insulin (n=2) and 100 nmol/l insulin (n=3) (51±12.5-fold; p=≦0.01) was plotted in FIG. 3e. Representative immunoblots of those quantified for FIGS. 3a, c and f are given in FIGS. 3b, d and e, respectively.
The effect of the peptide fragment 190-243 of human Apo A-I (SEQ ID NO: 1) on a non-insulin dependent signaling pathway, was tested using lysates from L6 myotubes as described above for rHDL. Myotubes were serum starved for 4 hours then treated for 60 minutes with 2, 10 or 20 μmol/l of 190-243 peptide, 1 mmol/l phenformin, 100 nmol/l insulin, or control (C) followed by western blot analysis for phosphorylated AMPK (AMP-activated protein kinase) or phosphorylated Akt. Tubulin was used as loading control. Blots shown are representative of three independent experiments.

| Substance | glucose uptake in adipocytes (in words) (rat adipocytes) | GLUT4 in the sarcolemma plasma membrane (HA signal, in words) (GLUT4) | Akt phosphorylation (in words) (Akt; 2, 10 or 20 μmol/l 190-243 peptide, FIG. 8c) | Akt phosphorylation (Akt; insulin 100 nmol/l) [fold] | Akt phosphorylation (Akt; rHDL 700 μg/ml apoA-I, insulin 1 nmol/l, ± S.D.) [fold] |
| --- | --- | --- | --- | --- | --- |
| 190-243 polypeptide fragment: polypeptide fragment consisting of amino acids 190-243 of the full-length human apoA-I protein, C-terminal domain, 54-mer, recombinant (AEYHAKATEHLSTLSEKAKPALEDLRQGLLPVLESFKVSFLSALEEYTKKLNTQ; listed as Homo Sapiens) | significantly induced | greater membrane levels of GLUT4 protein | unaffected |  |  |
| insulin | significantly induced | induced translocation of GLUT4 into the sarcolemma plasma membrane |  | 51±12.5 | 2.06±0.47 |
